The results in this text go back to patent US20110301079A1, “NEUROMEDIN U RECEPTOR AGONISTS AND USES THEREOF” (Instituto di Ricerche di Biologia Molecolare P. Angeletti …, priority 2007, published 2011).

One experiment has as its target T1, human NMUR1 (Homo sapiens, UniProt Q9HB89).
T1 construct: expressed in transfected cells; host or cells: FLP-In CHO cells and HEK-293 FLP-In cells (pcDNA5)
T1 sequence (Q9HB89 1-426): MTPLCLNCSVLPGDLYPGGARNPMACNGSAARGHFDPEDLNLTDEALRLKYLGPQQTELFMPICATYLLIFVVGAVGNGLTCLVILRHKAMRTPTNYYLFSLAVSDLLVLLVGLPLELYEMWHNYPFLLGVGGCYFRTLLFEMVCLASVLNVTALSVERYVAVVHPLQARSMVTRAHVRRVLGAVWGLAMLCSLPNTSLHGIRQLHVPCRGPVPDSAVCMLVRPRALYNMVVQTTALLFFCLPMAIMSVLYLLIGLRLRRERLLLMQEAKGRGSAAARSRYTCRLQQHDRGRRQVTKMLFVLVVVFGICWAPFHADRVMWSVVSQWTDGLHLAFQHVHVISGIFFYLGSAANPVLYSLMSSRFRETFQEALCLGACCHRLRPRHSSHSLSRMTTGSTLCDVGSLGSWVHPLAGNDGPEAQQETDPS
The experiment in a line: FLIPR calcium mobilization assay, human NMUR1-expressing cell line. The experiment is classed as cell-based. From the text:
(§1) Human, mouse or rat cDNAs encoding NMUR1 or NMUR2 (as described in Howard et al. Nature 406: 70-74 (2000) were subcloned in pcDNA5 (Invitrogen) and transfected into FLP-In CHO cells and HEK-293 FLP-In cells purchased from Invitrogen (Carlsbad, Calif.) using lipofectamine (Invitrogen). The Flp-In system allows integration and expression of a particular gene of interest at a specific genomic location utilizing the Flp recombinase from yeast. The transfected cells were selected by growth in medium containing 200 μg/mL hygromycin (Invitrogen). Populations were frozen at early passage numbers, and these stocks were used for further studies. Stable clones that expressed the mRNAs were identified functionally by FLIPR as well as by RT-PCR. […] Two different rodent NMUR1 cell lines were thus generated: one with the codon as predicted from the genomic databases and another cell line with an engineered methionine (ATG) as the start codon. The dog NMU receptors were also cloned from intestine RNA (NMUR1) and brain (NMUR2) and stable cell lines were generated as used for the human and rodent cell lines. […] To ensure high levels of expression in a heterologous system, a dog NMUR1 cell line was generated that contains an ATG as the start codon. Additionally, stable cell lines expressing the human receptors were generated in HEK-293/aeq 17 cells which stably express the aequorin gene under the CMV promoter. The human NMUR2 cDNA was cloned into pcDNA3.1 and human NMUR1 was subcloned into pIRES-puro (Clontech, Mountain View, Calif.), after transfection cells were selected in media containing G418 and either hygromycin (NMUR2) or puromycin (NMUR1).
(§2) The NMU receptors signal primarily through Gαq/11 proteins; therefore calcium mobilization assays can be utilized for functional activity.
(§3) Stable cell lines expressing human and or rodent NMUR1 or human NMUR2 receptors are plated at a density of 12,000 cells per well overnight on poly-lysine coated 384-well black-walled plates. The following day, the media is removed from the plates and the cells were subsequently loaded with Fluo-3 (Molecular Probes), a calcium sensitive dye, diluted in FLIPR buffer (1× Hank's buffered saline containing 20 mM HEPES, 0.1% BSA, 2.5 mM probenecid (Sigma) and 1.6 mM TR40). All reagents are from Invitrogen unless otherwise noted. Peptide stocks are resuspended in DMSO at a stock concentration of 2 mM and diluted in FLIPR buffer on the day of the experiment to a 4 μM working stock solution.
(§4) After a 90 minute incubation at room-temperature, cell plates are loaded onto a FLIPR (Molecular Devices) to monitor cellular fluorescence (excitation=488 nm; emission=540 nm) before and after compound/peptide addition. Eight to twelve point dose responses are tested on NMUR-expressing cell lines using FLIPR with 1 μM peptide as the highest dose. The response after peptide addition is taken as the maximum fluorescence units minus the fluorescence immediately prior to stimulation for each well. EC50 values are calculated using GraphPad Prism (San Diego, Calif.) software.
(§5) Percent activity refers to the maximum response at 1 μM compared to the human NMU-25 response at the same concentration.

Another experiment concerns the target T2, human NMUR2 (Homo sapiens, UniProt Q9GZQ4).
T2 construct: expressed in transfected cells; host or cells: FLP-In CHO cells and HEK-293 FLP-In cells (pcDNA5)
The experiment in a line: FLIPR calcium mobilization assay, human NMUR2-expressing cell line. The experiment is classed as cell-based.
Description: as §1, §2, §3, §4, §5
On the technique in general: Calcium assays in cells follow changes in intracellular calcium, usually with a dye or a luminescent sensor.

Another experiment relates to dog NMUR1-ATG. The experiment in a line: FLIPR calcium mobilization assay, dog NMUR1-ATG cell line. The experiment is classed as cell-based.
Description: as §1, §2, §3, §4, §5

Experiment [1] has as its system male diet-induced obese mice. The experiment in a line: Acute feeding study with NMU and NMS. The experiment is classed as in vivo. The method, then:
Ad libitum fed male diet-induced obese mice obtained from Taconic Farms were weighed and dosed either i.p. or s.c. with NMS or NMU at about 30 minutes prior to the onset of the dark phase of the light cycle and provided with a pre-weighed aliquot of high fat diet (D12492: 60% kcal from fat: Research Diets, Inc.), which was then weighed two and 18 hours after the onset of the initial dark phase. Mice were weighed at the 18 hour (overnight) time point.

For the next experiment, the target named is T3, mouse NMUR1-ATG (Mus musculus, UniProt O55040).
T3 construct: expressed in transfected cells; host or cells: FLP-In CHO cells and HEK-293 FLP-In cells (pcDNA5)
T3 sequence (O55040 1-428): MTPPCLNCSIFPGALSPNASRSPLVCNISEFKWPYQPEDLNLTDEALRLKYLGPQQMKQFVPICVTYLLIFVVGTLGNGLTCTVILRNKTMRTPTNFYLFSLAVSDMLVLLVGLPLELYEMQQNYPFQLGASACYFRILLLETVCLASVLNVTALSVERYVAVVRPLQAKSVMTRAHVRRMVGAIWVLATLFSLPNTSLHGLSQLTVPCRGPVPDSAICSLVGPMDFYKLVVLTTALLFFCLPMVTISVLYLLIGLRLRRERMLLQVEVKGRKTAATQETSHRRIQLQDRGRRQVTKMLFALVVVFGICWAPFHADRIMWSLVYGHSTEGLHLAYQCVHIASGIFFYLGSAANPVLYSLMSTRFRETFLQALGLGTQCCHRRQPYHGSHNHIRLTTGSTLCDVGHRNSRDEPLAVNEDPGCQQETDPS
The experiment in a line: FLIPR calcium mobilization assay, mouse NMUR1-ATG cell line. The experiment is classed as cell-based.
Description: as §1, §2, §3, §4, §5

For a further experiment, the target named is T4, mouse NMUR2 (Mus musculus, UniProt Q8BZ39).
T4 construct: expressed in transfected cells; host or cells: FLP-In CHO cells and HEK-293 FLP-In cells (pcDNA5)
The experiment in a line: FLIPR calcium mobilization assay, mouse NMUR2 cell line. The experiment is classed as cell-based.
Description: as §1, §2, §3, §4, §5

[2] abbreviates: maximum response at 1 μM compared to the human NMU-25 response at the same concentration.

T4 sequence (Q8BZ39 whole entry): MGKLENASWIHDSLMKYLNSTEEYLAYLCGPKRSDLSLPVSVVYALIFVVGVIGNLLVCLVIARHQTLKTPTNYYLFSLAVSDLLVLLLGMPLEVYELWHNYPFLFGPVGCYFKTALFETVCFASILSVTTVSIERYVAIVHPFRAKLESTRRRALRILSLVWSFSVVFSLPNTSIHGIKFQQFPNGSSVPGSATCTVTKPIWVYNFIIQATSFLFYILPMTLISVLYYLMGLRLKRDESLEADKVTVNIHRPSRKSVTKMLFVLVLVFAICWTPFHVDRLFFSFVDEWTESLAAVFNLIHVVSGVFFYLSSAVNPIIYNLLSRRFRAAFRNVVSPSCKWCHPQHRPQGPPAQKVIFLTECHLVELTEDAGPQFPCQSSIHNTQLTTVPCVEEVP
T2 sequence (Q9GZQ4 whole entry): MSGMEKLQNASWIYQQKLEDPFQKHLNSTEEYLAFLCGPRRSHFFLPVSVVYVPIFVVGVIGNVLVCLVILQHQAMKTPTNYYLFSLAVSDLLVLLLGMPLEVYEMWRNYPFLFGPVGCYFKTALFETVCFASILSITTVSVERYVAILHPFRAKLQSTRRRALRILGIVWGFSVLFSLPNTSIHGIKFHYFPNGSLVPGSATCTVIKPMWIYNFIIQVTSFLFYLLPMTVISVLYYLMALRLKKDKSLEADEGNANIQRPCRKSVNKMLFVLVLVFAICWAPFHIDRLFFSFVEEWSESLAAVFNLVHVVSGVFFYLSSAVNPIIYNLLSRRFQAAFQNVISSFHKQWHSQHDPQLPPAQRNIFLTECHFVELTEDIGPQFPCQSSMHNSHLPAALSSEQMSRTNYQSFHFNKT

A word on the EC50: it is the midpoint of the concentration-response curve. Turning to “H-ILQRGSGTAAVDFTKKDHTATWGRPFFLFRPRN-NH2 [NMS, reference compound]”, the EC50 on human NMUR1 (human NMUR1, FLIPR) stood at 6.7 nM; on human NMUR2 (human NMUR2, FLIPR), 12.6 nM; with dog NMUR1-ATG (FLIPR), 4.4 nM; on mouse NMUR1-ATG (FLIPR), 7 nM; on mouse NMUR2 (mouse NMUR2, FLIPR) it was 7.8 nM. The “% Activity” value on human NMUR1 (human NMUR1, maximum response at 1 μM compared to the human NMU-25 response at the same concentration) came to 97%; on human NMUR2 (human NMUR2, maximum response at 1 μM compared to the human NMU-25 response at the same concentration), 107%; with dog NMUR1-ATG (setting [2]) it was 100%; on mouse NMUR1-ATG (setting [2]), 102%; on mouse NMUR2 (mouse NMUR2, maximum response at 1 μM compared to the human NMU-25 response at the same concentration), 111%. In addition, the “anorectic effects compared with NMU” value in experiment [1] (acute peripheral administration) was “appeared to be greater than the anorectic effects observed with NMU”. Further, in experiment [1] (acute peripheral administration (i.p. or s.c.), FIG. 1A), the food intake result is listed as “significantly reduced”. Also, the body weight result in experiment [1] (acute peripheral administration, 18 hour (overnight), FIG. 1B) was “significantly reduced”.
